Results as given in patent US8247211B2, “Glycopeptide antibiotics” (American Cyanamid Company, priority 2001, dated 2012).
Values after ≈ are worked out from the molar mass of the structure shown.

How the values were obtained:
[1] = system: Staphylococcus aureus-SMITH (GC 4543); assay: Acute lethal infection in mice (ED50); format: in vivo; conditions: female CD-1 mice, intraperitoneal challenge, intravenous dose 30 min. after infection, 7 day survival ratios
Summary of the method: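 IP bacterial challenge, female CD-1 mice; inoculum lethal to untreated controls in 24-48 hr. IV dosing in saline or 5% dextrose 30 min post-infection, 5 mice/dose. ED50 from 7-day survival, 3 tests pooled.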

Escherichia coli = assay: In vitro antibacterial evaluation: minimum inhibitory concentration (MIC), broth dilution method; format: cell-based
Summary of the method: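 Using Muller-Hinton II […] and an inoculum of 5×10^5 CFU/mL, antibiotic dilutions from 64 down to 0.06 μg/mL were tested following NCCLS M7-A2. The MIC is the lowest concentration inhibiting growth, including in methicillin-, penicillin- or vancomycin-resistant clinical isolates.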

Enterococcus sp. = assay: as above; format: cell-based
Summary of the method: (§1)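 Test strains, among them recent clinical isolates carrying methicillin, penicillin and/or vancomycin resistance, were inoculated at 5×10^5 CFU/mL. A broth dilution series spanning 64-0.06 μg/mL in Muller-Hinton II […] (NCCLS M7-A2) defined the MIC as the lowest growth-inhibiting concentration.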

Streptococcus sp. = assay: as above; format: cell-based
Summary of the method: as §1

Staphylococcus sp. = assay: as above; format: cell-based; conditions: broth dilution, 18 hours at 35° C.
Summary of the method: as §1

[2] = broth dilution, inoculum 5×10^5 CFU/mL, 18 hours at 35° C.

## CC(c1ccccc1)C1NC(=O)CNC(=O)C(CO)NC(=O)C(C(O)C2CNC(=N)N2C2OC(CO)C(O)C(O)C2O)NC(=O)C(C(O)C2CNC(=N)N2)NC(=O)C(Cc2ccc(OC3OC(CO)C(OC4OC5COC(c6cc7c(cc6Cl)OCO7)OC5C(O)C4O)C(O)C3O)cc2)NC1=O (stereo not drawn) [Example 158, Cyclo[glycyl-β-methylphenylalanyl-O-[4-O-[4,6-O-[(6-chloro-1,3-benzodioxol-5-yl)-methylene]hexopyranosyl]hexopyranosyl]tyrosyl-3-(2-iminoimidazolidin-4-yl)seryl-3-(3-hexopyranosyl-2-iminoimidazolidin-4-yl)serylseryl]]
[1]
  median effective dose (ED50), Staphylococcus aureus-SMITH (GC 4543): 0.14 mg/kg
Escherichia coli; strain ATCC 25922
  MIC Escherichia coli (ATCC 25922): 64 µg/mL (≈ 43.8 µM)
Escherichia coli; strain GC 4559
  MIC Escherichia coli (GC 4559): 64 µg/mL (≈ 43.8 µM)
Escherichia coli; strain GC 4560
  MIC Escherichi coli (GC 4560): 1 µg/mL (≈ 0.684 µM)
Enterococcus sp.; [2]
  MIC Enterococcus avium (GC 4558): 4 µg/mL (≈ 2.74 µM)
  MIC Enterococcus faecalis (ATCC 29212): 4 µg/mL (≈ 2.74 µM)
  MIC Enterococcus faecalis (GC 4552): 8 µg/mL (≈ 5.47 µM)
  MIC Enterococcus faecalis (GC 4553): 4 µg/mL (≈ 2.74 µM)
  MIC Enterococcus faecalis (GC 4554): 4 µg/mL (≈ 2.74 µM)
  MIC Enterococcus faecalis (GC 6189): 4 µg/mL (≈ 2.74 µM)
  MIC Enterococcus faecium (GC 2243): 4 µg/mL (≈ 2.74 µM)
  MIC Enterococcus faecium (GC 4556): 8 µg/mL (≈ 5.47 µM)
  MIC Enterococcus faecium (GC 4557): 2 µg/mL (≈ 1.37 µM)
Enterococcus sp.; strain ATCC 29212
  MIC Enterococcus faecalis (ATCC 29212): 4 µg/mL (≈ 2.74 µM)
Enterococcus sp.; strain GC 2242
  MIC Enterococcus faecalis (GC 2242): 4 µg/mL (≈ 2.74 µM)
Enterococcus sp.; strain GC 2243
  MIC Enterococcus faecium (GC 2243): 4 µg/mL (≈ 2.74 µM)
Enterococcus sp.; strain GC 2691
  MIC Enterococcus faecalis (GC 2691): 4 µg/mL (≈ 2.74 µM)
Enterococcus sp.; strain GC 3059
  MIC Enterococcus faecalis (GC 3059): 4 µg/mL (≈ 2.74 µM)
Enterococcus sp.; strain GC 4552
  MIC Enterococcus faecalis (GC 4552): 8 µg/mL (≈ 5.47 µM)
Enterococcus sp.; strain GC 4553
  MIC Enterococcus faecalis (GC 4553): 4 µg/mL (≈ 2.74 µM)
Enterococcus sp.; strain GC 4554
  MIC Enterococcus faecalis (GC 4554): 4 µg/mL (≈ 2.74 µM)
Enterococcus sp.; strain GC 4556
  MIC Enterococcus faecium (GC 4556): 8 µg/mL (≈ 5.47 µM)
Enterococcus sp.; strain GC 4557
  MIC Enterococcus faecium (GC 4557): 2 µg/mL (≈ 1.37 µM)
Enterococcus sp.; strain GC 4558
  MIC Enterococcus avium (GC 4558): 4 µg/mL (≈ 2.74 µM)
Enterococcus sp.; strain GC 6189
  MIC Enterococcus faecalis (GC 6189): 4 µg/mL (≈ 2.74 µM)
Streptococcus sp.; strain ATCC 6301
  MIC Streptococcus pneumoniae (ATCC 6301): 0.12 µg/mL (≈ 0.0821 µM)
Streptococcus sp.; strain GC 1894
  MIC Streptococcus pneumoniae (GC 1894): <0.06 µg/mL
Streptococcus sp.; strain GC 4563
  MIC Streptococcus pyogenes (GC 4563): 0.25 µg/mL (≈ 0.171 µM)
Streptococcus sp.; strain GC 4564
  MIC Streptococcus agalactiae (GC 4564): 0.25 µg/mL (≈ 0.171 µM)
Streptococcus sp.; strain GC 4565
  MIC Streptococcus pneumoniae (GC 4565): <0.06 µg/mL
Staphylococcus sp.; 5×10^5 CFU/mL
  MIC Coagulase Negative Staphylococcus (GC 4547): 2 µg/mL (≈ 1.37 µM)
  MIC Coagulase Negative Staphylococcus (GC 4548): 1 µg/mL (≈ 0.684 µM)
  MIC Coagulase Negative Staphylococcus (GC 4549): 1 µg/mL (≈ 0.684 µM)
  MIC Coagulase Negative Staphylococcus (GC 4551): 2 µg/mL (≈ 1.37 µM)
  MIC Coagulase Negative Staphylococcus (GC 6257): 1 µg/mL (≈ 0.684 µM)
  MIC Staphylococcus aureus (ATCC 29213): 2 µg/mL (≈ 1.37 µM)
  MIC Staphylococcus aureus (GC 1131): 2 µg/mL (≈ 1.37 µM)
  MIC Staphylococcus aureus (GC 3051): 1 µg/mL (≈ 0.684 µM)
  MIC Staphylococcus aureus (GC 3053): 2 µg/mL (≈ 1.37 µM)
  MIC Staphylococcus aureus (GC 4541): 1 µg/mL (≈ 0.684 µM)
  MIC Staphylococcus aureus (GC 4542): 1 µg/mL (≈ 0.684 µM)
  MIC Staphylococcus aureus (GC 4544): 2 µg/mL (≈ 1.37 µM)
  MIC Staphylococcus aureus (GC 4545): 2 µg/mL (≈ 1.37 µM)
  MIC Staphylococcus aureus-SMITH (GC 4543): 2 µg/mL (≈ 1.37 µM)
  MIC Staphylococcus haemolyticus (GC 4546): 0.5 µg/mL (≈ 0.342 µM)
Staphylococcus sp.; strain ATCC 29213
  MIC Staphylococcus aureus (ATCC 29213): 2 µg/mL (≈ 1.37 µM)
Staphylococcus sp.; strain GC 1131
  MIC Staphylococcus aureus (GC 1131): 2 µg/mL (≈ 1.37 µM)
Staphylococcus sp.; strain GC 3051
  MIC Staphylococcus aureus (GC 3051): 1 µg/mL (≈ 0.684 µM)
Staphylococcus sp.; strain GC 3053
  MIC Staphylococcus aureus (GC 3053): 2 µg/mL (≈ 1.37 µM)
Staphylococcus sp.; strain GC 4541
  MIC Staphylococcus aureus (GC 4541): 1 µg/mL (≈ 0.684 µM)
Staphylococcus sp.; strain GC 4542
  MIC Staphylococcus aureus (GC 4542): 1 µg/mL (≈ 0.684 µM)
Staphylococcus sp.; strain GC 4543
  MIC Staphylococcus aureus-SMITH (GC 4543): 2 µg/mL (≈ 1.37 µM)
Staphylococcus sp.; strain GC 4544
  MIC Staphylococcus aureus (GC 4544): 2 µg/mL (≈ 1.37 µM)
Staphylococcus sp.; strain GC 4545
  MIC Staphylococcus aureus (GC 4545): 2 µg/mL (≈ 1.37 µM)
Staphylococcus sp.; strain GC 4546
  MIC Staphylococcus haemolyticus (GC 4546): 0.5 µg/mL (≈ 0.342 µM)
Staphylococcus sp.; strain GC 4547
  MIC Coagulase Negative Staphylococcus (GC 4547): 2 µg/mL (≈ 1.37 µM)
Staphylococcus sp.; strain GC 4548
  MIC Coagulase Negative Staphylococcus (GC 4548): 1 µg/mL (≈ 0.684 µM)
Staphylococcus sp.; strain GC 4549
  MIC Coagulase Negative Staphylococcus (GC 4549): 1 µg/mL (≈ 0.684 µM)
Staphylococcus sp.; strain GC 4551
  MIC Coagulase Negative Staphylococcus (GC 4551): 2 µg/mL (≈ 1.37 µM)
Staphylococcus sp.; strain GC 6257
  MIC Coagulase Negative Staphylococcus (GC 6257): 1 µg/mL (≈ 0.684 µM)
